Patent US11311501B2, “Mitoriboscins: mitochondrial-based therapeutics targeting cancer cells, bacteria, and pathogenic yeast” (LUNELLA BIOTECH, INC., priority 2017, dated 2022)
Converted amounts (≈) assume the structure as drawn.

Key:
P. auriginosa ATCC 27853 = test: MIC by broth dilution method; format: cell-based, P. aeruginosa; conditions: for MIC50 / MIC99: Pseudomonas aeruginosa, ATCC27853
Method: (§1) The minimal inhibitory concentration (MIC) of the antibacterial compounds may be determined using the broth dilution method, according to CLSI guidelines. Test compound solutions (or antibiotic solutions used as positive controls) were diluted, serially, with MHB medium. Then, the suspensions of the microorganisms, prepared from overnight cultures of bacteria in the MHB medium, at a concentration of 10^6 CFU/ml, were added to each dilution in a 1:1 ratio. McFarland standards were used as a reference to adjust the turbidity of microorganism suspensions. Growth (or lack thereof) of the microorganisms was determined after incubation for 24 hours at 37° C. by turbidimetry (wavelength of 600 nm). […] The susceptibility test by measurement of MIC was performed in triplicate and repeated three times independently.

MRSA ATCC 43300 = test: MIC by broth dilution method; format: cell-based, Methicillin-resistant Staphylococcus aureus; conditions: for sensitivity of MRSA: summary of Table 4
Method: as §1, with “nm). MIC 50 and MIC 99 are defined as the minimum inhibitory concentration of the compound required for 50% and 99% inhibition of bacterial growth.” for “nm).”, “independently. Statistical significance was determined using the Student's t-test and values of less than 0.05 were considered significant.” for “independently.”
(§2) In order to determine the minimal inhibitory concentration (MIC) for 24/F9, 24/D4 and 23/G4, the broth dilution method may be performed.

K. pneumoniae ATCC 13883 = test: MIC by broth dilution method; format: cell-based; conditions: for MIC50 / MIC99: Klebsiella pneumoniae, ATCC13883
Method: as §1

[1] = system: Staph. aureus ATCC 25923 (MSSA); test: MIC by broth dilution method; format: cell-based; conditions: for MIC50 / MIC99: Staphylococcus aureus
Method: as §1

[2] = system: Strept. pyogenes ATCC 19615; test: MIC by broth dilution method; format: cell-based; conditions: for MIC50 / MIC99: Streptococcus pyogenes, ATCC19615
Method: as §1

E. coli ATCC 25922 = test: MIC by broth dilution method; format: cell-based; conditions: E. coli ATCC 25922, 24 hours at 37° C.; for MIC50 / MIC99: Escherichia coli, ATCC25922
Method: as §1

C. albicans = test: MIC by broth dilution method; format: cell-based; conditions: C. albicans ATCC 13883
Method: as §1, with “nm). MIC 50 and MIC 99 are defined as the minimum inhibitory concentration of the compound required for 50% and 99% inhibition of bacterial growth.” for “nm).”, “independently. Statistical significance was determined using the Student's t-test and values of less than 0.05 were considered significant.” for “independently.”
as §2

MCF7 cells [3] = test: Seahorse XF96 metabolic flux analysis (OCR/ECAR); format: cell-based, human; conditions: for rank order potency to reduce maximal respiration and ATP production: top 10 hits, FIG. 10; for effect on glycolysis: ECAR; for inhibition of mitochondrial oxygen-consumption: FIGS. 7, 8 and 9
Source text: The present approach further involves methods of functional validation at step S105, during which a compound's function as a mitochondrial inhibitor may be confirmed. A number of methods may be used for functional validation, including, for example, metabolic flux analysis, mammosphere assays, viability assays, and antibiotic (anti-bacterial and/or anti-fungal) activity. For example, the inventors determined extracellular acidification rates (ECAR) and real-time oxygen consumption rates (OCR) for MCF7 cells using the Seahorse Extracellular Flux (XF96) analyzer (Seahorse Bioscience, MA, USA). MCF7 cells were maintained in DMEM supplemented with 10% FBS (fetal bovine serum), 2 mM GlutaMAX, and 1% Pen-Strep. 5,000 cells per well were seeded into XF96-well cell culture plates, and incubated overnight at 37° C. in a 5% CO2 humidified atmosphere. After 24 hours, cells were treated with selected compounds showing ATP-depletion without prominent cytotoxicity at various concentrations (or vehicle alone). After 72 hours of treatment, cells were washed in pre-warmed XF assay media (for OCR measurement, XF assay media was supplemented with 10 mM glucose, 1 mM Pyruvate, 2 mM L-glutamine and adjusted at pH 7.4). Cells were maintained in 175 μL/well of XF assay media at 37° C. in a non-CO2 incubator for 1 hour. During incubation, 25 μL of 80 mM glucose, 9 μM oligomycin, 1M 2-deoxyglucose (for ECAR measurement) and 25 μL of 10 μM oligomycin, 9 μM FCCP, 10 μM rotenone, 10 μM antimycin A (for OCR measurement) in XF assay media was loaded into the injection ports of the XFe-96 sensor cartridge. During the experiment, the instrument injected these inhibitors into the wells at a given time point, while ECAR/OCR was measured continuously. ECAR and OCR measurements were normalized by protein content (using the Sulphorhodamine B assay). Data sets were analyzed by XFe-96 software, using one-way ANOVA and Student's t-test calculations. All experiments were performed in triplicate, and results validated the mitochondrial inhibition effects of mitoriboscin compounds described herein. It should be appreciated that numerous methods are known for functional validation, and that persons of skill in the art may select one or more depending on the validation needs (e.g., other assays that measure or approximate mitochondrial function). The present approach involves methods of function validation of mitoriboscin compounds. For example, the inventors assessed functional validation of three candidates using the Seahorse Analyzer, which quantitatively measures oxygen consumption rate (OCR) and extracellular acidification rate (ECAR). OCR is a surrogate marker for OXPHOS and ECAR is a surrogate marker for glycolysis and L-lactate production.

MCF7 cells [4] = test: Mammosphere formation assay; format: cell-based, human; conditions: 5 μM, FIG. 5
Source text: The present approach involves methods of testing compounds, and in particular mitoriboscins, for anti-cancer properties. As discussed above, vHTS and computational chemistry may be used to identify candidate mitochondrial inhibitors. Those candidates may be tested for specific anti-cancer properties. For examples, the inventors compared seven candidate compounds in parallel for their ability to inhibit mammosphere formation in MCF7 cells. […] For example, 23/G4 (Group 1) reduced mammosphere formation by 50% at this concentration. Similarly, 24/F9 (Group 2) and 24/D4 (Group 3), both reduced mammosphere formation by ˜90%.

[5] = Staphylococcus aureus, MRSA ATCC 43300
[6] = Staph. aureus ATCC 25923 (Table 3)

| MIC50 (P. auriginosa ATCC 27853) | MIC99 (P. auriginosa ATCC 27853) | MIC50 (K. pneumoniae ATCC 13883) | MIC99 (K. pneumoniae ATCC 13883) | MIC 50% ([1]; MSSA ATCC 25923 (Table 4)) | MIC 99% ([1]; MSSA ATCC 25923 (Table 4)) | MIC50 [1, 6] | MIC99 [1, 6] | MIC50 [2] | MIC99 [2] | MIC50 (E. coli ATCC 25922) | MIC99 (E. coli ATCC 25922) | SMILES | rank order potency to reduce maximal respiration and ATP production (MCF7 cells [3]) | other results |
| --- | --- | --- | --- | --- | --- | --- | --- | --- | --- | --- | --- | --- | --- | --- |
| 128 µg/mL (≈ 350 µM) | 256 µg/mL (≈ 701 µM) | 32 µg/mL (≈ 87.6 µM) | > 64 µg/mL | 4 µg/mL (≈ 10.9 µM) | 8 µg/mL (≈ 21.9 µM) | 4 µg/mL (≈ 10.9 µM) | 8 µg/mL (≈ 21.9 µM) | 4 µg/mL (≈ 10.9 µM) | 8 µg/mL (≈ 21.9 µM) | 16 µg/mL (≈ 43.8 µM) | > 32 µg/mL | CC1(C)S[C@@H]2[C@H](NC(=O)[C@H](N)c3ccc(O)cc3)C(=O)N2[C@H]1C(=O)O [AMOXICILLIN, reference compound] |  | sensitivity of MRSA (MRSA ATCC 43300): resistant; MIC50 (MRSA ATCC 43300; [5]): > 64 µg/mL; MIC99 (MRSA ATCC 43300; [5]): > 64 µg/mL |
|  |  |  |  |  |  |  |  |  |  |  |  | Clc1ccc(COC(Cn2ccnc2)c2ccc(Cl)cc2Cl)c(Cl)c1 (centres unmarked) [MICONAZOLE, reference compound] |  | MIC50 (C. albicans; Candida albicans, ATCC13883): 0.5 µg/mL (≈ 1.2 µM); MIC99 (C. albicans; Candida albicans, ATCC13883): 1 µg/mL (≈ 2.4 µM) |
|  |  |  |  |  |  |  |  |  |  |  |  | CN(C)Cc1cccc(C2CCCN2Cc2ccccc2OCc2cccc(F)c2)n1 (centres unmarked) [25/B3] | top 6 |  |
|  |  |  |  | 16 µg/mL (≈ 34.3 µM) | 32 µg/mL (≈ 68.6 µM) |  |  |  |  |  |  | CCCc1ccc(OCc2ccccc2)c(CN2CCC3(CC2)CC(N(C)C)C(C)(O)CO3)c1 (centres unmarked) [24/D4] |  | MIC 99% (C. albicans): >64 µg/mL; MIC 50% (P. auriginosa ATCC 27853): 16 µg/mL (≈ 34.3 µM); MIC 99% (P. auriginosa ATCC 27853): 32 µg/mL (≈ 68.6 µM); reduction of mammosphere formation (MCF7 cells [4]): ~90%; MIC 50% (MRSA ATCC 43300; MRSA ATCC 43300): 16 µg/mL (≈ 34.3 µM); MIC 99% (MRSA ATCC 43300; MRSA ATCC 43300): >32 µg/mL; sensitivity of MRSA (MRSA ATCC 43300): sensitive; MIC 50% (K. pneumoniae ATCC 13883): 16 µg/mL (≈ 34.3 µM); MIC 99% (K. pneumoniae ATCC 13883): 32 µg/mL (≈ 68.6 µM); MIC 50% [1, 6]: 16 µg/mL (≈ 34.3 µM); MIC 99% [1, 6]: 32 µg/mL (≈ 68.6 µM); MIC 50% [2]: 16 µg/mL (≈ 34.3 µM); MIC 99% [2]: 32 µg/mL (≈ 68.6 µM); MIC 50% (E. coli ATCC 25922): 16 µg/mL (≈ 34.3 µM); MIC 99% (E. coli ATCC 25922): 32 µg/mL (≈ 68.6 µM); effect on glycolysis (MCF7 cells [3]): suppressed glycolysis; inhibition of mitochondrial oxygen-consumption (MCF7 cells [3]): dose-dependently inhibited |
|  |  |  |  |  |  |  |  |  |  |  |  | CN1CCCN(C2CCN(Cc3cc(Cl)ccc3OCc3ccccc3)CCC2O)CC1 (centres unmarked) [24/H6] | top 6 |  |
| 64 µg/mL (≈ 190 µM) | 256 µg/mL (≈ 759 µM) | 128 µg/mL (≈ 379 µM) | 256 µg/mL (≈ 759 µM) |  |  | 1 µg/mL (≈ 2.96 µM) | 2 µg/mL (≈ 5.93 µM) | 1 µg/mL (≈ 2.96 µM) | 2 µg/mL (≈ 5.93 µM) | 128 µg/mL (≈ 379 µM) | > 128 µg/mL | CC(=O)NC[C@H]1CN(c2ccc(N3CCOCC3)c(F)c2)C(=O)O1 [LINEZOLID, reference compound] |  |  |
| 1 µg/mL (≈ 2.25 µM) | 2 µg/mL (≈ 4.5 µM) | 2 µg/mL (≈ 4.5 µM) | 4 µg/mL (≈ 9 µM) |  |  | 0.5 µg/mL (≈ 1.13 µM) | 1 µg/mL (≈ 2.25 µM) | 0.5 µg/mL (≈ 1.13 µM) | 1 µg/mL (≈ 2.25 µM) | 0.5 µg/mL (≈ 1.13 µM) | 2 µg/mL (≈ 4.5 µM) | C[C@H]1c2cccc(O)c2C(=O)C2=C(O)[C@]3(O)C(=O)C(C(N)=O)=C(O)[C@@H](N(C)C)[C@@H]3[C@@H](O)[C@@H]21 [DOXYCYCLINE, reference compound] |  | MIC99 (C. albicans; Candida albicans, ATCC13883): > 64 µg/mL |
|  |  |  |  | 32 µg/mL (≈ 68.7 µM) | 64 µg/mL (≈ 137 µM) |  |  |  |  |  |  | CN1CCN(C2CCN(Cc3cc(C(C)(C)C)ccc3OCc3ccccc3)CCC2O)CC1 (centres unmarked) [24/F9] | top 6 | MIC 99% (C. albicans): >64 µg/mL; MIC 50% (P. auriginosa ATCC 27853): >32 µg/mL; MIC 99% (P. auriginosa ATCC 27853): >64 µg/mL; reduction of mammosphere formation (MCF7 cells [4]): ~90%; MIC 50% (MRSA ATCC 43300; MRSA ATCC 43300): 64 µg/mL (≈ 137 µM); MIC 99% (MRSA ATCC 43300; MRSA ATCC 43300): >64 µg/mL; MIC 50% (K. pneumoniae ATCC 13883): 32 µg/mL (≈ 68.7 µM); MIC 99% (K. pneumoniae ATCC 13883): 64 µg/mL (≈ 137 µM); MIC 50% [1, 6]: 32 µg/mL (≈ 68.7 µM); MIC 99% [1, 6]: 64 µg/mL (≈ 137 µM); MIC 50% [2]: 32 µg/mL (≈ 68.7 µM); MIC 99% [2]: 64 µg/mL (≈ 137 µM); MIC 50% (E. coli ATCC 25922): 32 µg/mL (≈ 68.7 µM); MIC 99% (E. coli ATCC 25922): 64 µg/mL (≈ 137 µM); effect on glycolysis (MCF7 cells [3]): suppressed glycolysis; inhibition of mitochondrial oxygen-consumption (MCF7 cells [3]): dose-dependently inhibited |
|  |  |  |  |  |  |  |  |  |  |  |  | CN(C)C1CC2(CCN(Cc3cc(Cl)ccc3OCc3ccccc3)CC2)OCC1(C)O (centres unmarked) [24/H9] | top 6 |  |
|  |  |  |  |  |  |  |  |  |  |  |  | OC1C(NCc2ccccc2)CCCC1Oc1ccccc1Oc1cccc(F)c1 (centres unmarked) [23/E9] | top 6 |  |
